ChEMBL document CHEMBL5126560, “2,3-Dihydrobenzo-dioxine piperidine derivatives as potent and selective α2c antagonists” (Bioorg Med Chem Lett, 2022)
Converted amounts (≈) assume the structure as drawn.

Assays:
[1] = Cmax in rat plasma at 1 mg/kg, po; type: ADME, organism-based; design: dose 1 mg/kg, route po
[2] = Tmax in rat brain at 1 mg/kg, po; type: ADME, organism-based
[3] = Unbound brain-to-plasma concentration ratio in rat at 1 mg/kg, po; type: ADME, organism-based; conditions: read-out: K(p,uu,brain)
[4] = Unbound Cmax in rat brain at 1 mg/kg, po by rapid equilibrium dialysis method; type: ADME, organism-based; conditions: in vivo
[5] = Unbound fraction in rat plasma at 1 mg/kg, po by rapid equilibrium dialysis method; type: ADME, organism-based
[6] = Tmax in rat plasma at 1 mg/kg, po; type: ADME, organism-based
[7] = Cmax in rat brain at 1 mg/kg, po; type: ADME, organism-based; design: dose 1 mg/kg, route po
[8] = AUC (0 to 6 hrs) in rat brain at 1 mg/kg, po; type: ADME, organism-based; design: time < 6 hr, dose 1 mg/kg, route po; conditions: in vivo
[9] = Unbound fraction in rat brain at 1 mg/kg, po by rapid equilibrium dialysis method; type: ADME, organism-based
[10] = Unbound Cmax in rat plasma at 1 mg/kg, po by rapid equilibrium dialysis method; type: ADME, organism-based; conditions: in vivo
[11] = AUC (0 to 6 hrs) in rat plasma at 1 mg/kg, po; type: ADME, organism-based; design: time < 6 hr, dose 1 mg/kg, route po
[12] = Solubility of compound in pH 7.4 buffer at 1 uM; type: physicochemical
[13] = Permeability across basolateral to apical side in human Caco-2 cells; type: ADME, cell-based; conditions: read-out: permeability
Homo sapiens = species: Homo sapiens; assay: Selectivity ratio of Kb for antagonist activity at human alpha2A receptor stably expressed in CHO cells to Kb for antagonist activity at human alpha2C receptor stably expressed in CHO cells; type: cell-based
in vitro = conditions: human, Caco-2
Description: Efflux ratio of permeability across basolateral to apical side over apical to basolateral side in human Caco-2 cells

[14] = Lipophilicity, log D of compound at pH 7.4; type: physicochemical; conditions: buffer
[15] = Clearance in human hepatocytes assessed per million cells at 1 uM; type: ADME, cell-based, Hepatocyte; conditions: read-out: CLH
[16] = Clearance in rat hepatocytes assessed per million cells at 1 uM; type: ADME, cell-based, Hepatocyte; conditions: read-out: CLH
[17] = Permeability across apical to basolateral side in human Caco-2 cells; type: ADME, cell-based; conditions: read-out: permeability

| Cmax [1] [ng/mL] | Tmax [2] [min] | Kp uu [3] | fCmax [4] [nM] | fraction unbound [5] | Tmax [6] [min] | Cmax [7] [ng/g] | AUC [8] [ng·h/g] | fraction unbound [9] | fCmax [10] [nM] | AUC(0-t) at 6 h [11] [ng·h/mL] | solubility at 1 µM [12] [µM] | Papp B→A [13] [×10⁻⁶ cm/s] | efflux ratio (in vitro) | logD ([14]; read-out: logD) | hepatocyte CLint at 1 µM [15] [µL/min/1e6 cells] | hepatocyte CLint at 1 µM [16] [µL/min/1e6 cells] | Papp A→B [17] [×10⁻⁶ cm/s] | logD [14] | SMILES | Selectivity ratio (Homo sapiens) |
| --- | --- | --- | --- | --- | --- | --- | --- | --- | --- | --- | --- | --- | --- | --- | --- | --- | --- | --- | --- | --- |
| 209 | 30 | 0.4 | 18 | 0.078 | 30 | 72 | 91 | 0.096 | 44 | 261 | – | – | – | – | – | – | – | – | CCN1C(=O)C(=O)N([C@H]2CCCN(C[C@H]3COc4ccccc4O3)C2)C1=O | – |
| 2 | 360 | – | < 0.09 | < 0.01 | 30 | 3 | 14 | < 0.01 | < 0.06 | 9 | 18 (≈ 5.86 µg/mL) | 24.2 | 1.5 | 3.4 | 294 | 682 | 16.1 | – | Oc1cccc([C@H]2CCCN(C[C@H]3COc4ccccc4O3)C2)c1 | 1950 |
| – | – | – | – | – | – | – | – | – | – | – | 176 (≈ 62.6 µg/mL) | 45 | 1 | – | 38.7 | 135 | 44.9 | 3.3 | COCc1cccnc1N1CCN(C[C@H]2COc3ccccc3O2)CC1 [ORM-13070] | 4330 |
